Data: PubChem BioAssay AID256 (DTP/NCI, 2004)
“And” between values parts separate entries of the source, which are not always exact repeats. Equal entries are not always repeated. Inconclusive results and toxic doses are left out. Rule for the calls: active = survival T/C of 150% or more; inactive = T/C below 125% in these data.

Tested on: CD2F1 mice, L1210 leukemia ip, survival T/C
Assay: NCI In Vivo Anticancer Drug Screen. Data for tumor model L1210 Leukemia (intraperitoneal) in CD2F1 (CDF1) mice
Conditions: higher = longer survival
Summary of the method: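 Each value reflects a quotient of treated over vehicle control outcomes in mice with a transplanted tumor.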

[1] = endpoint: mean survival time, dose: 100.0 mg/kg/injection, schedule: Q01DX009 (ip), vehicle: Klucel (hydroxypropylcellulose) (HPC)
[2] = endpoint: mean survival time, dose: 100.0 mg/kg/injection, schedule: Q04DX003 (ip), vehicle: saline with Tween-80
[3] = endpoint: mean survival time, dose: 200.0 mg/kg/injection, schedule: Q01DX009 (ip), vehicle: Klucel (hydroxypropylcellulose) (HPC)
[4] = endpoint: mean survival time, dose: 200.0 mg/kg/injection, schedule: Q04DX003 (ip), vehicle: saline with Tween-80
[5] = endpoint: mean survival time, dose: 400.0 mg/kg/injection, schedule: Q04DX003 (ip), vehicle: saline with Tween-80
[6] = endpoint: mean survival time, dose: 100.0 mg/kg/injection, schedule: Q01DX009 (ip), vehicle: saline
[7] = endpoint: mean survival time, dose: 200.0 mg/kg/injection, schedule: Q01DX009 (ip), vehicle: saline
[8] = endpoint: mean survival time, dose: 100.0 mg/kg/injection, schedule: Q01DX009 (ip), vehicle: saline with Tween-80
[9] = endpoint: mean survival time, dose: 200.0 mg/kg/injection, schedule: Q01DX009 (ip), vehicle: saline with Tween-80
[10] = endpoint: mean survival time, dose: 400.0 mg/kg/injection, schedule: Q01DX009 (ip), vehicle: saline with Tween-80
[11] = endpoint: mean survival time, dose: 50.0 mg/kg/injection, schedule: Q01DX009 (ip), vehicle: saline with Tween-80
[12] = endpoint: mean survival time, dose: 100.0 mg/kg/injection, schedule: Q01DX001 (ip), vehicle: saline with Tween-80
[13] = endpoint: mean survival time, dose: 100.0 mg/kg/injection, schedule: Q04DX002 (ip), vehicle: saline with Tween-80
[14] = endpoint: mean survival time, dose: 200.0 mg/kg/injection, schedule: Q01DX001 (ip), vehicle: saline with Tween-80
[15] = endpoint: mean survival time, dose: 200.0 mg/kg/injection, schedule: Q04DX002 (ip), vehicle: saline with Tween-80
[16] = endpoint: mean survival time, dose: 400.0 mg/kg/injection, schedule: Q01DX001 (ip), vehicle: saline with Tween-80
[17] = endpoint: mean survival time, dose: 400.0 mg/kg/injection, schedule: Q04DX002 (ip), vehicle: saline with Tween-80
[18] = endpoint: mean survival time, dose: 12.5 mg/kg/injection, schedule: Q01DX009 (ip), vehicle: saline with Tween-80
[19] = endpoint: mean survival time, dose: 25.0 mg/kg/injection, schedule: Q01DX009 (ip), vehicle: saline with Tween-80

Measured: T/C

O=P1(N2CC2)OCCCN1CCCl (stereo not drawn)
inactive: endpoint: mean survival time, dose: 3.8 mg/kg/injection, schedule: Q01DX001 (ip), vehicle: distilled water + Tween-80 102 % of control | endpoint: mean survival time, dose: 7.5 mg/kg/injection, schedule: Q01DX001 (ip), vehicle: distilled water + Tween-80 106 % of control | endpoint: mean survival time, dose: 15.0 mg/kg/injection, schedule: Q01DX001 (ip), vehicle: distilled water + Tween-80 107 % of control | endpoint: mean survival time, dose: 30.0 mg/kg/injection, schedule: Q01DX001 (ip), vehicle: distilled water + Tween-80 98 % of control | endpoint: mean survival time, dose: 62.5 mg/kg/injection, schedule: Q01DX001 (ip), vehicle: saline with Tween-80 110 % of control

CC(C)(C)CC(C)(C)c1ccc(OCCOc2ccc(CC(=S)N3CCOCC3)cc2)cc1
inactive: [1] 96 % of control | [2] 93 % of control | [3] 95 % of control | [4] 95 % of control | endpoint: mean survival time, dose: 400.0 mg/kg/injection, schedule: Q01DX009 (ip), vehicle: Klucel (hydroxypropylcellulose) (HPC) 98 % of control | [5] 87 % of control

O=C(O)C1C2CC(O)C(C2)C1C(=O)O (stereo not drawn)
inactive: [6] 97 % of control | endpoint: mean survival time, dose: 100.0 mg/kg/injection, schedule: Q04DX003 (ip), vehicle: saline 94 % of control | [7] 100 % of control | endpoint: mean survival time, dose: 200.0 mg/kg/injection, schedule: Q04DX003 (ip), vehicle: saline 94 % of control | endpoint: mean survival time, dose: 400.0 mg/kg/injection, schedule: Q01DX009 (ip), vehicle: saline 97 % of control | endpoint: mean survival time, dose: 400.0 mg/kg/injection, schedule: Q04DX003 (ip), vehicle: saline 95 % of control

COc1c(C=O)c2c(c(OC)c1OC)-c1ccc(OC)c(=O)cc1[C@@H](NC(C)=O)CC2
inactive: endpoint: median survival time, dose: 12.5 mg/kg/injection, schedule: Q01DX009 (ip), vehicle: Klucel (hydroxypropylcellulose) (HPC) 100 % of control

Cc1cc(N)c(C)c([N+](=O)[O-])c1
inactive: [2] 103 % of control | [4] 101 % of control | [5] 92 % of control

Cc1cccc(OP(=O)(c2ccccc2)c2ccccc2)c1
inactive: [2] 98 % of control | [4] 98 % of control | [5] 103 % of control

O=C(O)C1CCC(=O)N1C(=O)OCc1ccccc1 (stereo not drawn)
inactive: [8] 95 % of control | [9] 92 % of control | [10] 90 % of control

N#Cc1c(Cl)cc(C2(O)C3C=CC2CC3)cc1Cl (stereo not drawn)
inactive: endpoint: median survival time, dose: 25.0 mg/kg/injection, schedule: Q04DX002 (ip), vehicle: saline with Tween-80 112 % of control | endpoint: median survival time, dose: 50.0 mg/kg/injection, schedule: Q04DX002 (ip), vehicle: saline with Tween-80 100 % of control | endpoint: median survival time, dose: 100.0 mg/kg/injection, schedule: Q04DX002 (ip), vehicle: saline with Tween-80 100 % of control | endpoint: median survival time, dose: 200.0 mg/kg/injection, schedule: Q04DX002 (ip), vehicle: saline with Tween-80 112 % of control

CCC(C)C(CO)c1ccccc1 (stereo not drawn)
inactive: [11] 98 % of control | [8] 88 % of control

N#C/C(=C\C=C\c1cccc([N+](=O)[O-])c1)c1ccccc1
inactive: [12] 96 % of control | [8] 100 % of control and 103 % of control | [13] 102 % of control | [2] 97 % of control | [14] 105 % of control | [9] 96 % of control and 107 % of control | [15] 98 % of control | [4] 105 % of control | [16] 97 % of control | [10] 94 % of control and 100 % of control | [17] 100 % of control | [5] 94 % of control

O=S1CCS(=O)CC1 (stereo not drawn)
inactive: endpoint: mean survival time, dose: 100.0 mg/kg/injection, schedule: Q01DX001 (ip), vehicle: saline 96 % of control | endpoint: mean survival time, dose: 200.0 mg/kg/injection, schedule: Q01DX001 (ip), vehicle: saline 93 % of control | endpoint: mean survival time, dose: 400.0 mg/kg/injection, schedule: Q01DX001 (ip), vehicle: saline 98 % of control

CN(C)c1ccc(/C=N/NC(=O)COc2ccccc2)cc1
inactive: [8] 91 % of control | [9] 89 % of control

COc1ccc(/C=C/c2ccccc2)cc1
inactive: [12] 95 % of control | [14] 88 % of control | [16] 86 % of control

Clc1cc(Cl)c(CBr)cc1CBr
inactive: [18] 91 % of control | [4] 90 % of control

CC(=O)Nc1nnc(-c2ccc([N+](=O)[O-])o2)s1
inactive: endpoint: mean survival time, dose: 75.0 mg/kg/injection, schedule: Q04DX003 (ip), vehicle: saline 97 % of control | endpoint: mean survival time, dose: 150.0 mg/kg/injection, schedule: Q04DX003 (ip), vehicle: saline 100 % of control | endpoint: mean survival time, dose: 300.0 mg/kg/injection, schedule: Q04DX003 (ip), vehicle: saline 97 % of control

Nc1ncnc2c1ncn2CCC(=O)O
inactive: [12] 94 % of control | [13] 105 % of control | [14] 92 % of control | [15] 97 % of control | [16] 90 % of control | [17] 105 % of control

CN1C(=O)CC(c2ccc(NC(=O)CI)cc2)C1=O (stereo not drawn)
inactive: endpoint: mean survival time, dose: 6.25 mg/kg/injection, schedule: Q04DX002 (ip), vehicle: saline with Tween-80 92 % of control | endpoint: mean survival time, dose: 12.5 mg/kg/injection, schedule: Q04DX002 (ip), vehicle: saline with Tween-80 96 % of control

CC1(CCC2(C)OCCO2)OCCO1
inactive: [13] 93 % of control | [15] 101 % of control | [17] 93 % of control

Nc1c(Cl)c(Cl)nc(C(=O)O)c1Cl
inactive: endpoint: mean survival time, dose: 25.0 mg/kg/injection, schedule: Q01DX009 (ip), vehicle: Klucel (hydroxypropylcellulose) (HPC) 98 % of control | [19] 100 % of control | endpoint: mean survival time, dose: 50.0 mg/kg/injection, schedule: Q01DX009 (ip), vehicle: Klucel (hydroxypropylcellulose) (HPC) 98 % of control | [11] 94 % of control | endpoint: mean survival time, dose: 50.0 mg/kg/injection, schedule: Q01DX009 (ip), vehicle: saline 97 % of control | [1] 90 % of control | [8] 97 % of control | [6] 97 % of control | [3] 100 % of control | [9] 97 % of control | [7] 101 % of control | [10] 101 % of control

CCOC(=O)c1ccc(NC/C(CN)=N/O)cc1
inactive: endpoint: mean survival time, dose: 75.0 mg/kg/injection, schedule: Q01DX001 (ip), vehicle: other 95 % of control | endpoint: mean survival time, dose: 150.0 mg/kg/injection, schedule: Q01DX001 (ip), vehicle: other 95 % of control

C[CH2][Sn]([Cl])([Cl])[Cl].Oc1ccccc1C=NCCN=Cc1ccccc1O
inactive: [11] 100 % of control | [8] 95 % of control | [2] 98 % of control | [9] 97 % of control | [4] 89 % of control

C[C@H]1C[C@@H]2[C@H]([C@@H](O)C[C@@]3(C)[C@H]2CC[C@]3(O)C(=O)CF)[C@@]2(C)C=CC(=O)C=C12
inactive: endpoint: mean survival time, dose: 100.0 mg/kg/injection, schedule: Q01DX001 (sc), vehicle: steriod suspending solution 98 % of control | endpoint: mean survival time, dose: 200.0 mg/kg/injection, schedule: Q01DX001 (sc), vehicle: steriod suspending solution 101 % of control | endpoint: mean survival time, dose: 400.0 mg/kg/injection, schedule: Q01DX001 (sc), vehicle: steriod suspending solution 108 % of control

CCOC(=O)/C=C/CP(=O)(OCC)OCC
inactive: endpoint: mean survival time, dose: 50.0 mg/kg/injection, schedule: Q01DX001 (ip), vehicle: carboxymethylcellulose (CMC) 102 % of control

CCOC(=O)C1(C(=O)OCC)CCC(O)N1C(=O)c1ccccc1[N+](=O)[O-] (stereo not drawn)
inactive: endpoint: mean survival time, dose: 100.0 mg/kg/injection, schedule: Q01DX001 (ip), vehicle: Klucel (hydroxypropylcellulose) (HPC) 100 % of control | endpoint: mean survival time, dose: 200.0 mg/kg/injection, schedule: Q01DX001 (ip), vehicle: Klucel (hydroxypropylcellulose) (HPC) 96 % of control | endpoint: mean survival time, dose: 400.0 mg/kg/injection, schedule: Q01DX001 (ip), vehicle: Klucel (hydroxypropylcellulose) (HPC) 92 % of control

CCc1cc2c(cc1C(=O)/C=C\c1cccc3ccccc13)C(C)(C)CCC2(C)C
inactive: endpoint: mean survival time, dose: 6.25 mg/kg/injection, schedule: Q01DX009 (ip), vehicle: saline with Tween-80 94 % of control | [18] 86 % of control | [19] 93 % of control

NP(=O)(OCCCOCc1ccccc1)N(CCCl)CCCl (stereo not drawn)
inactive: endpoint: mean survival time, dose: 12.5 mg/kg/injection, schedule: Q01DX005 (ip), vehicle: water 95 % of control | endpoint: mean survival time, dose: 25.0 mg/kg/injection, schedule: Q01DX005 (ip), vehicle: water 94 % of control | endpoint: mean survival time, dose: 50.0 mg/kg/injection, schedule: Q01DX005 (ip), vehicle: water 100 % of control | endpoint: mean survival time, dose: 100.0 mg/kg/injection, schedule: Q01DX005 (ip), vehicle: water 100 % of control | endpoint: mean survival time, dose: 200.0 mg/kg/injection, schedule: Q01DX005 (ip), vehicle: water 101 % of control
